Target: T1, Caspase-1 (Homo sapiens, UniProt P29466)
T1 sequence (P29466 whole entry): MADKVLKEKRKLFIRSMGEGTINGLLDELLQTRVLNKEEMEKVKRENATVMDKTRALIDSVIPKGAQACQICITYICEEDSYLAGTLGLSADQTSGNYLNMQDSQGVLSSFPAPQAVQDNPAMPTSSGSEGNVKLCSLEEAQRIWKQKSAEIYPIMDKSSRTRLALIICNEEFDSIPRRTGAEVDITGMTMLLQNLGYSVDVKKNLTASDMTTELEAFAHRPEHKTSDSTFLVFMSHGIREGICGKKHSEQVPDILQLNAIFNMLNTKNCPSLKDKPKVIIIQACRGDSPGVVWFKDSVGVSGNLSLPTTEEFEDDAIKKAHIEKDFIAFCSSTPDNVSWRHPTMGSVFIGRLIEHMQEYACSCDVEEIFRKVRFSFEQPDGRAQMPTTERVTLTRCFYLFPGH
Assay: Inhibition of human recombinant IL-1 beta converting enzyme

Row | Compound | Ki [µM]
1 | CCC(C(=O)N[C@@H](CC(=O)O)C(=O)CN(C)CCc1ccccc1)n1cccc(NC(=O)c2ccc3ccccc3c2)c1=O (stereo not given in full) | 0.0048
2 | CCCCN(CC)CC(=O)[C@H](CC(=O)O)NC(=O)C(CC)n1cccc(NC(=O)c2ccc3ccccc3c2)c1=O (stereo not given in full) | 0.0023
3 | CCCCCCN(CCCCCC)CC(=O)[C@H](CC(=O)O)NC(=O)C(CC)n1cccc(NC(=O)c2ccc3ccccc3c2)c1=O (stereo not given in full) | 0.00239
4 | CCC(C(=O)N[C@@H](CC(=O)O)C(=O)CN[C@H](Cc1ccccc1)C(N)=O)n1cccc(NC(=O)c2ccc3ccccc3c2)c1=O (stereo not given in full) | 0.025
5 | CCCCNCC(=O)[C@H](CC(=O)O)NC(=O)C(CC)n1cccc(NC(=O)c2ccc3ccccc3c2)c1=O (stereo not given in full) | 0.00076
6 | CCC(C(=O)NC(CC(=O)O)C(=O)CNC(=O)c1ccccc1)n1cccc(NC(=O)c2ccc3ccccc3c2)c1=O (stereo not given) | 0.0575
7 | CCCCCCN(C)CC(=O)[C@H](CC(=O)O)NC(=O)C(CC)n1cccc(NC(=O)c2ccc3ccccc3c2)c1=O (stereo not given in full) | 0.00179
8 | CCC(C(=O)NC(CC(=O)O)C(=O)Cn1ccc(=O)cc1)n1cccc(NC(=O)c2ccc3ccccc3c2)c1=O (stereo not given) | 0.395
9 | CCC(C(=O)N[C@@H](CC(=O)O)C(=O)CNCc1ccccc1)n1cccc(NC(=O)c2ccc3ccccc3c2)c1=O (stereo not given in full) | 0.00305
10 | CCC(C(=O)N[C@@H](CC(=O)O)C(=O)CN(C)[C@@H](Cc1ccccc1)C(N)=O)n1cccc(NC(=O)c2ccc3ccccc3c2)c1=O (stereo not given in full) | 0.255
11 | CCC(C(=O)N[C@@H](CC(=O)O)C(=O)CNCCCc1ccccc1)n1cccc(NC(=O)c2ccc3ccccc3c2)c1=O (stereo not given in full) | 0.00115
12 | CCCCCCNCC(=O)[C@H](CC(=O)O)NC(=O)C(CC)n1cccc(NC(=O)c2ccc3ccccc3c2)c1=O (stereo not given in full) | 0.00085
13 | CCC(C(=O)N[C@@H](CC(=O)O)C(=O)CNCCc1ccccc1)n1cccc(NC(=O)c2ccc3ccccc3c2)c1=O (stereo not given in full) | 0.00037
14 | CCC(C(=O)N[C@@H](CC(=O)O)C(=O)CN(C)Cc1ccccc1)n1cccc(NC(=O)c2ccc3ccccc3c2)c1=O (stereo not given in full) | 0.058
15 | CCC(C(=O)N[C@@H](CC(=O)O)C(=O)CN[C@@H](Cc1ccccc1)C(N)=O)n1cccc(NC(=O)c2ccc3ccccc3c2)c1=O (stereo not given in full) | 0.078
16 | CCC(C(=O)NC(CC(=O)O)C(=O)Cn1ccccc1=O)n1cccc(NC(=O)c2ccc3ccccc3c2)c1=O (stereo not given) | 1.65
17 | CCCCCC(=O)NCC(=O)C(CC(=O)O)NC(=O)C(CC)n1cccc(NC(=O)c2ccc3ccccc3c2)c1=O (stereo not given) | 0.0343
18 | CCC(C(=O)N[C@@H](CC(=O)O)C(=O)CN(C)CCCC(N)=O)n1cccc(NC(=O)c2ccc3ccccc3c2)c1=O (stereo not given in full) | 0.037
19 | CCCC(=O)NCC(=O)C(CC(=O)O)NC(=O)C(CC)n1cccc(NC(=O)c2ccc3ccccc3c2)c1=O (stereo not given) | 0.081
20 | CCCCN(C)CC(=O)[C@H](CC(=O)O)NC(=O)C(CC)n1cccc(NC(=O)c2ccc3ccccc3c2)c1=O (stereo not given in full) | 0.0031

Other lines, results leading:

Row | Ki [µM] | Compound
21 | 0.41 | CCC(C(=O)NC(CC(=O)O)C(=O)CN1CCNCC1)n1cccc(NC(=O)c2ccc3ccccc3c2)c1=O (stereo not given)
22 | 0.0228 | CCC(C(=O)N[C@@H](CC(=O)O)C(=O)CN(C)C)n1cccc(NC(=O)c2ccc3ccccc3c2)c1=O (stereo not given in full)
23 | 0.0073 | CCC(C(=O)NC(CC(=O)O)C(=O)CN1CCCC1)n1cccc(NC(=O)c2ccc3ccccc3c2)c1=O (stereo not given)
24 | 0.0112 | CCC(C(=O)NC(CC(=O)O)C(=O)CN1CCSCC1)n1cccc(NC(=O)c2ccc3ccccc3c2)c1=O (stereo not given)
25 | 0.045 | CCC(C(=O)NC(CC(=O)O)C(=O)CN1CCOCC1)n1cccc(NC(=O)c2ccc3ccccc3c2)c1=O (stereo not given)
26 | 0.0625 | CCC(C(=O)NC(CC(=O)O)C(=O)CN1CCN(C)CC1)n1cccc(NC(=O)c2ccc3ccccc3c2)c1=O (stereo not given)
27 | 0.008 | CCOC(=O)C1CCN(CC(=O)C(CC(=O)O)NC(=O)C(CC)n2cccc(NC(=O)c3ccc4ccccc4c3)c2=O)CC1 (stereo not given)
28 | 0.117 | CCC(C(=O)NC(CC(=O)O)C(=O)CNC(C)=O)n1cccc(NC(=O)c2ccc3ccccc3c2)c1=O (stereo not given)
29 | 0.004 | CCC(C(=O)NC(CC(=O)O)C(=O)CN1CCCCC1)n1cccc(NC(=O)c2ccc3ccccc3c2)c1=O (stereo not given)
30 | 0.0116 | CCC(C(=O)NC(CC(=O)O)C(=O)CN1CCC(C(N)=O)CC1)n1cccc(NC(=O)c2ccc3ccccc3c2)c1=O (stereo not given)
